In US10702525B1, “Pyrimidine derivatives as anti-diabetic agents” (UNITED ARAB EMIRATES UNIVERSITY, priority 2019, dated 2020):

Experiments:
[1] = system: Streptozotocin-injected (STZ) diabetic rats; experiment: Fasting blood glucose level of STZ diabetic rats; type: in vivo, rat; details: for reduction in blood glucose level compared to control diabetic groups: 6 and 8 hours after treatment, n=6
Text: These symptoms indicate the development of diabetes characterized by chronic and persistently elevated plasma glucose level. STZ induces diabetes by selectively destroying the insulin producing pancreatic endocrine cells. Decreased body weight in STZ-induced diabetic rats is believed to be caused by dehydration, and by breakdown and catabolism of fats and proteins. Increased catabolic reactions upon administering STZ result in muscle wasting, and subsequently, body weight loss.
Compounds 81c, 81f, 82c, and 82d, synthesized as described in Examples 1, 2, 5, and 6 were orally administrated to the treated groups of diabetic rats at a dose of 1.0 μM/kg. Fasting glucose levels in treated and control rat blood were followed over 8.0 hours. […] Compounds 82c and 82d were also tested in vivo (FIGS. 1C, 1D). […] In FIGS. 1A-1D the results are means±SEM, where n=6 rats; *P<0.05, **P<0.01, and ***P<0.001 vs. the STZ diabetic control group.

βTC6 cells [2] = experiment: Insulin secretion from βTC6 cell line (insulin Sandwich ELISA); type: cell-based, murine; details: for insulin secretion compared to the basal control: absence of glucose; for insulin secretion compared to the basal control / insulin secretion compared to basal insulin secretion and to insulin secretion in the presence of glucose: 10^−15 M, 10^−12 M and 10^−9 M; for insulin secretion compared to the basal control / insulin secretion compared to basal insulin secretion and to insulin secretion in the presence of glucose / glucose-stimulated insulin release compared to basal controls (summary statement): βTC6 cells; for insulin secretion compared to basal insulin secretion and to insulin secretion in the presence of glucose: presence of 2.8 mM glucose
Description: Secretion of insulin by βTC6 cells was measured using the high range insulin Sandwich ELISA kit.

βTC6 cells [3] = experiment: Glucose uptake assay (2-NBDG) in βTC6 cells; type: cell-based, murine; details: 10 μM sample, 450 μM 2-NBDG, ten minutes
Description: The glucose uptake assay was performed with a cell-based assay kit by incubating 450 μM 2-[N-(7-nitrobenz-2-oxa-1,3-diaxol-4-yl)amino]-2-deoxyglucose (2-NBDG, a fluorescently labelled deoxyglucose analog) and a 10 μM sample of the reference drug or the test compound with βTC6 cells for ten minutes and subsequently measuring the fluorescence at excitation and emission wavelengths of 485 nm and 535 nm, respectively, with a TECAN infinite M200 micro plate reader.

[4] = oral, 1.0 μM/kg, STZ diabetic rats

melting point [°C] | SMILES | fasting blood glucose levels in diabetic rat models (summary statement) [1] | reduction in blood glucose level compared to control diabetic groups [1, 4] | insulin secretion compared to the basal control (βTC6 cells [2]) | insulin secretion compared to basal insulin secretion and to insulin secretion in the presence of glucose (βTC6 cells [2]) | glucose-stimulated insulin release compared to basal controls (summary statement) (βTC6 cells [2]) | glucose uptake compared to the standard reference exenatide (βTC6 cells [3]) | effect on blood glucose levels (not statistically significant) ([1]; oral, 1.0 μM/kg, followed over 8.0 hours, STZ diabetic rats) | anti-diabetic potency ranking ([1]; in vivo and in vitro results taken together) | potency in reducing the blood glucose level ([1]; oral, 1.0 μM/kg, at 8 hours, STZ diabetic rats) | insulin secretion effect relative to exenatide (βTC6 cells [2]; βTC6 cell line)
116 to 117 | OCCNc1ccnc(Cl)n1 [Compound 81f, 2-[(2′-Chloropyrimidin-4′-yl)amino]ethanol] | decrease fasting blood glucose levels | significant reduction in blood glucose level | significantly stimulated insulin secretions | stimulated insulin secretion significantly | increase glucose-stimulated insulin release | remarkable potential to flush glucose into the βTC6 cells |  |  |  | 
 | Clc1cc(N2CCOCC2)ncn1 [Compound 82d, 4-(6′-Chloropyrimidin-4′-yl)morpholine] | decrease fasting blood glucose levels |  |  |  | increase glucose-stimulated insulin release |  | reduced blood glucose levels |  |  | 
136 | CN(CCO)c1ccnc(Cl)n1 [Compound 81c, 2-[(2′-Chloropyrimidin-4′-yl)-methylamino]ethanol] | decrease fasting blood glucose levels | significant reduction in blood glucose level | significantly stimulated insulin secretions | stimulated insulin secretion significantly | increase glucose-stimulated insulin release | remarkable potential to flush glucose into the βTC6 cells |  | most potent anti-diabetic compound | high potency in reducing the blood glucose level | comparable effects to exenatide
 | CN(CCO)c1cc(Cl)ncn1 [Compound 82c, 2-[(6′-Chloropyrimidin-4′-yl)(methylamino)]ethanol] | decrease fasting blood glucose levels | statistically significant reduction in blood glucose level | significantly stimulated insulin secretions | stimulated insulin secretion significantly | increase glucose-stimulated insulin release | remarkable potential to flush glucose into the βTC6 cells |  |  |  | 
